Assay results from BindingDB's records for doi:10.1021/bi100299r (Riken Systems and Structural Biology Center, 2010).

What follows are molecules tested against Lysine-specific histone demethylase 1A (Homo sapiens, UniProt O60341) (assay: LSD1 Inhibition Assay).
Text: The kinetic inhibition parameters of LSD1 demethylase inhibition were obtained using the peroxidase-coupled reaction method.

| SMILES | IC50 [µM] |
| --- | --- |
| CC(C)COc1ccc(Cl)cc1C1CC1N (centres undefined) | 14.9 |
| NC1CC1c1cc(F)ccc1-c1ccccc1 (centres undefined) [S1310] | > 50 |
| NC1CC1c1cc(Cl)ccc1OCc1ccccc1 (centres undefined) [S1401] | > 30 |
| CC(C)COc1c(Cl)cc(Cl)cc1C1CC1N (centres undefined) [S1502] | > 50 |
| NC1CC1c1ccc(OCc2ccccc2)cc1OCc1ccccc1 (centres undefined) [S1601] | > 30 |
| CC(C)COc1ccc(C2CC2N)c(OCC(C)C)c1 (centres undefined) [S1602] | > 30 |
| NC1CC1c1ccc(OCC2CCCCC2)cc1OCC1CCCCC1 (centres undefined) [S1603] | > 30 |
| NCc1cccc(COc2c(F)cc(F)cc2C2CC2N)c1 (centres undefined) [S2107] | 4.1 |
| COc1cccc(COc2c(F)cc(F)cc2C2CC2N)c1 (centres undefined) [S2206] | > 30 |
